Laboratory results: article PMC5467912, “Asymmetric regulation of quorum-sensing receptors drives autoinducer-specific gene expression programs in Vibrio cholerae” (PLoS Genetics, 2017)
Values joined by “and” are separate entries in the source; they are usually repeats but may differ in a detail not shown here. Identical values can stand only once.

Legend:
CqsS-mKATE2 = assay: Qrr4 regulation of CqsS-mKATE2 translational fusion, anhydrous tetracycline-inducible qrr4 (S4 Fig); assay type: cell-based, E. coli
Text: (§1) We examined whether Qrr regulation of CqsS is direct or indirect using a CqsS-mKATE2 translational fusion in E. coli expressing inducible qrr4. We reasoned that, if CqsS production is controlled by Qrr4, repression of CqsS-mKATE2 should occur when Qrr4 is induced. We verified that our system works by showing that inducible Qrr4 is capable of repressing a previously-identified direct target, VCA0107-GFP [24]. However, no repression of CqsS-mKATE2 occurred following induction of Qrr4 (S4 Fig).
(§2) To assay qrr4 regulation of cqsS, the relative fluorescence of translational fusions (VCA0107B-GFP and CqsS-mKATE2) was measured in E. coli BWR1. E. coli carrying one of these plasmids also contained either an empty plasmid (pZA31) or pZA31 carrying anhydrous tetracycline-inducible qrr4. Qrr4-mediated repression of CqsS-mKATE2 was assessed. VCA0107-GFP is a known Qrr4-repressed target and was used as a positive control to show the system was functional. Overnight cultures were diluted 1:50 into fresh medium and aliquotted in triplicate into 96 well plates. […] OD600 and fluorescence were assessed using an Envision 2103 Multilabel Reader (Perkin Elmer).
(§3) Supplementary file pgen.1006826.s008.tiff: S4 Fig Qrr4 indirectly regulates cqsS. Fluorescence from plasmid-encoded VCA0107-GFP (circles) and CqsS-mKATE2 (squares) was measured in E. coli. Either an empty vector (pZA31-lucNB, black) or pZA31-lucNB carrying tetracycline-inducible qrr4 (pYS245, red) was present in each strain. VCA0107 encodes a type VI secretion system component that is regulated by Qrr4. Data represent two experiments conducted in triplicate. Error bars represent standard errors of the mean. (TIFF) Click here for additional data file.

VCA0107-GFP = assay: Qrr4 regulation of VCA0107-GFP translational fusion, anhydrous tetracycline-inducible qrr4 (S4 Fig); assay type: cell-based, E. coli; settings: pVC107 Qrr4; aTc 0.0976562 ng/ml (normalization point)
Text: as §1, §2, §3

## Cc1c2c(c(O)c3c(O)cccc13)C(=O)[C@]1(O)C(=O)C(C(N)=O)=C(O)[C@@H](N(C)C)[C@@H]1C2 [aTc]
CqsS-mKATE2; pCqsS Qrr4, aTc 0.0976562 ng/ml (normalization point)
  Relative reporter signal, experimental averages: 1
CqsS-mKATE2; pCqsS Qrr4, aTc 0.195312 ng/ml, normalized to 0.0976562 ng/ml
  Relative reporter signal, experimental averages: 0.9161 and 1.022 and 1.111
CqsS-mKATE2; pCqsS Qrr4, aTc 0.390625 ng/ml, normalized to 0.0976562 ng/ml
  Relative reporter signal, experimental averages: 0.9447 and 1.099 and 1.082
CqsS-mKATE2; pCqsS Qrr4, aTc 0.78125 ng/ml, normalized to 0.0976562 ng/ml
  Relative reporter signal, experimental averages: 0.9451 and 1.129 and 1.056
CqsS-mKATE2; pCqsS Qrr4, aTc 1.5625 ng/ml, normalized to 0.0976562 ng/ml
  Relative reporter signal, experimental averages: 1.068 and 1.16 and 0.9801
CqsS-mKATE2; pCqsS Qrr4, aTc 3.125 ng/ml
  Relative reporter signal, single replicates: 1.44 and 0.9097 and 1.127 and 0.956
CqsS-mKATE2; pCqsS Qrr4, aTc 3.125 ng/ml, normalized to 0.0976562 ng/ml
  Relative reporter signal, experimental averages: 1.078 and 1.159 and 0.9843
CqsS-mKATE2; pCqsS Qrr4, aTc 6.25 ng/ml
  Relative reporter signal, single replicates: 1.264 and 1.158 and 1.22 and 0.881 and 1.097 and 1.0668 and 1.093 and 0.9121 and 1.019
CqsS-mKATE2; pCqsS Qrr4, aTc 6.25 ng/ml, normalized to 0.0976562 ng/ml
  Relative reporter signal, experimental averages: 1.008 and 1.214 and 1.015
CqsS-mKATE2; pCqsS Qrr4, aTc 12.5 ng/ml
  Relative reporter signal, single replicates: 1.4702 and 1.295 and 1.361 and 0.8302 and 0.9914 and 0.8969 and 1.079 and 1.208 and 0.9918
CqsS-mKATE2; pCqsS Qrr4, aTc 12.5 ng/ml, normalized to 0.0976562 ng/ml
  Relative reporter signal, experimental averages: 1.093 and 1.376 and 0.9062
CqsS-mKATE2; pCqsS Qrr4, aTc 25 ng/ml
  Relative reporter signal, single replicates: 1.547 and 1.293 and 1.267 and 0.9302 and 0.911 and 0.8369 and 1.15 and 1.125 and 1.107
CqsS-mKATE2; pCqsS Qrr4, aTc 25 ng/ml, normalized to 0.0976562 ng/ml
  Relative reporter signal, experimental averages: 1.127 and 1.369 and 0.8927
CqsS-mKATE2; pCqsS Qrr4, aTc 50 ng/ml
  Relative reporter signal, single replicates: 1.539 and 1.282 and 1.3008 and 0.9601 and 0.9046 and 0.8156 and 1.287 and 1.24 and 0.9722
CqsS-mKATE2; pCqsS Qrr4, aTc 50 ng/ml, normalized to 0.0976562 ng/ml
  Relative reporter signal, experimental averages: 1.167 and 1.374 and 0.8934
CqsS-mKATE2; pCqsS Qrr4, aTc 100 ng/ml
  Relative reporter signal, single replicates: 1.525 and 1.187 and 1.2288 and 1.039 and 0.9388 and 0.8346 and 1.105 and 1.41 and 1.043
CqsS-mKATE2; pCqsS Qrr4, aTc 100 ng/ml, normalized to 0.0976562 ng/ml
  Relative reporter signal, experimental averages: 1.186 and 1.313 and 0.9374
CqsS-mKATE2; pCqsS Qrr4, aTc 200 ng/ml
  Relative reporter signal, single replicates: 1.816 and 1.134 and 1.357 and 1.246 and 1.145 and 0.8992 and 1.196 and 1.432 and 1.656
CqsS-mKATE2; pCqsS Qrr4, aTc 200 ng/ml, normalized to 0.0976562 ng/ml
  Relative reporter signal, experimental averages: 1.428 and 1.436 and 1.096
CqsS-mKATE2; pCqsS vector, aTc 0.0976562 ng/ml (normalization point)
  Relative reporter signal, experimental averages: 1
CqsS-mKATE2; pCqsS vector, aTc 0.195312 ng/ml, normalized to 0.0976562 ng/ml
  Relative reporter signal, experimental averages: 1.035 and 0.9136
CqsS-mKATE2; pCqsS vector, aTc 0.390625 ng/ml, normalized to 0.0976562 ng/ml
  Relative reporter signal, experimental averages: 1.0872 and 0.9606
CqsS-mKATE2; pCqsS vector, aTc 0.78125 ng/ml, normalized to 0.0976562 ng/ml
  Relative reporter signal, experimental averages: 0.9727 and 0.9156
CqsS-mKATE2; pCqsS vector, aTc 1.5625 ng/ml, normalized to 0.0976562 ng/ml
  Relative reporter signal, experimental averages: 1.033 and 0.9687
CqsS-mKATE2; pCqsS vector, aTc 3.125 ng/ml
  Relative reporter signal, single replicates: 1.095 and 1.006 and 1.033 and 1.049 and 1.037 and 0.9455
CqsS-mKATE2; pCqsS vector, aTc 3.125 ng/ml, normalized to 0.0976562 ng/ml
  Relative reporter signal, experimental averages: 1.045 and 1.01
CqsS-mKATE2; pCqsS vector, aTc 6.25 ng/ml
  Relative reporter signal, single replicates: 1.025 and 0.9971 and 1.015 and 1.078 and 0.9309 and 0.9316
CqsS-mKATE2; pCqsS vector, aTc 6.25 ng/ml, normalized to 0.0976562 ng/ml
  Relative reporter signal, experimental averages: 1.0121 and 0.9801
CqsS-mKATE2; pCqsS vector, aTc 12.5 ng/ml
  Relative reporter signal, single replicates: 1 and 0.9215 and 1.059 and 1.011 and 1.014 and 0.8976
CqsS-mKATE2; pCqsS vector, aTc 12.5 ng/ml, normalized to 0.0976562 ng/ml
  Relative reporter signal, experimental averages: 0.9936 and 0.9741
CqsS-mKATE2; pCqsS vector, aTc 25 ng/ml
  Relative reporter signal, single replicates: 0.9696 and 0.9738 and 0.9202 and 1.059 and 1.016 and 0.9126
CqsS-mKATE2; pCqsS vector, aTc 25 ng/ml, normalized to 0.0976562 ng/ml
  Relative reporter signal, experimental averages: 0.9545 and 0.9958
CqsS-mKATE2; pCqsS vector, aTc 50 ng/ml
  Relative reporter signal, single replicates: 0.9232 and 0.9361 and 1.0359 and 1.102 and 1.073 and 0.9182
CqsS-mKATE2; pCqsS vector, aTc 50 ng/ml, normalized to 0.0976562 ng/ml
  Relative reporter signal, experimental averages: 0.965 and 1.031
CqsS-mKATE2; pCqsS vector, aTc 100 ng/ml
  Relative reporter signal, single replicates: 0.9506 and 0.9792 and 0.9909 and 1.135 and 1.123 and 0.9303
CqsS-mKATE2; pCqsS vector, aTc 100 ng/ml, normalized to 0.0976562 ng/ml
  Relative reporter signal, experimental averages: 0.9736 and 1.063
CqsS-mKATE2; pCqsS vector, aTc 200 ng/ml
  Relative reporter signal, single replicates: 1.017 and 1.029 and 1.01 and 1.335 and 1.085 and 1.09
CqsS-mKATE2; pCqsS vector, aTc 200 ng/ml, normalized to 0.0976562 ng/ml
  Relative reporter signal, experimental averages: 1.019 and 1.17
VCA0107-GFP
  Relative reporter signal, experimental averages: 1
